Measured values from patent publication US10342839B2, “Essential oil compositions and applications utilizing essential oils” (Ralco Nutrition, Inc., priority 2015, dated 2019).

Experiments:
[1] = ORAC against peroxyl radicals; conditions: trolox equivalents
Text: (§1) Table 4 illustrates the ORAC scores for oregano essential oil (Origanum vulgare), thyme essential oil (Thymus vulgaris), cinnamaldehyde, and ActiFibe (50 wt. % larch arabinogalactan, 50 wt. % water) against 5 of the most common detrimental ROS: peroxyl radicals (RO2), hydroxyl radicals (OH^−1), peroxynitrate (ONO2^−1; H2O2+NO2^−1), superoxide anion (O2^−1), and singlet oxygen (O2). Results are expressed as trolox equivalents (TE/100 g) for each composition: […]

[2] = Total ORAC over the five ROS; conditions: sum over the five oxygen species
Text: as §1

[3] = 3-oil screening trial, 35 days, broilers with cocci stress; type: in vivo, Cobb 500 cockerels; conditions: 0.75 pounds per ton of feed
Text: 640 1-day-old Cobb 500 cockerels were wing banded, weighed and randomly assigned to pens on the day of delivery. Each pen was 3 feet wide by 2 feet long by 2 feet tall holding 10 birds each; density was 0.6 sq. ft. per bird. The pens were contained within two battery cages in a single barn, each with battery cage having 4 levels and 8 pens per level for a total of 32 pens per battery. The experimental period was 35 days divided into three (3) feeding stages, starter, grower and finisher. Bird weight, average daily gain (ADG), average daily feed intake (ADFI), feed to gain (FG) and Coccidiosis oocyte counts were determined at each period. This study was performed with a large number of treatments in order to screen a number of possible treatments for further future investigations. […]

[4] = ORAC against peroxynitrite; conditions: trolox equivalents
Text: as §1

[5] = ORAC against superoxide anion; conditions: trolox equivalents
Text: as §1

[6] = ORAC against singlet oxygen; conditions: trolox equivalents
Text: as §1

[7] = ORAC against hydroxyl radicals; conditions: trolox equivalents
Text: as §1

With `O=CC=Cc1ccccc1` [Cinnamaldehyde, cinnamaldehyde] the “Oxygen Radical Absorbance Capacity, Peroxyl radical” value [1] was 18,800 TE/100 g, the “Total ORAC” value [2] was 1,141,300 TE/100 g and the “Average bird weights at 35 days” value [3] was 2180.2 grams. For the same molecule, the “Oxygen Radical Absorbance Capacity, Peroxynitrite” value [4] was 3,500 TE/100 g, the “Oxygen Radical Absorbance Capacity, Superoxide anion” value [5] was 978,900 TE/100 g and the “Oxygen Radical Absorbance Capacity, Singlet oxygen” value [6] was 90,800 TE/100 g. The “Oxygen Radical Absorbance Capacity, Hydroxyl radical” value [7] was 49,300 TE/100 g.
